Reference: patent US20220064238A1, “Methods And Compositions For Modifying Transcription Factor Activity by Targeting The Human Mediator Complex Using Cell Penetrating Memetic Peptides And Methods of Treating Cancer Using The Same” (The Regents of the University of Colorado, a body corporate, priority 2020, published 2022)
Bridge positions count the residues as written; N and C are the ends. Square brackets hold non-standard residues; d marks the D form. Peptide text beside a SMILES is read from it. PEG6 = NCCOCCOCCOCCOCCOCCOCCC(=O)O; R8 = C=CCCCCCC[C@@](C)(N)C(=O)O; S5 = C=CCCC[C@](C)(N)C(=O)O

Assays:
[1] = target: T1, p53-activated transcription (Gal4-p53AD, Mediator) (Homo sapiens, UniProt Q9NVC6); assay: In vitro transcription on naked DNA templates, p53-activated (+Gal4-p53AD); type: biochemical; conditions: 500 nM peptide
T1 construct: made in house
Source text: To screen peptides for the ability to selectively block p53-dependent transcription, we required an assay that enabled p53-dependent activation but that could also support basal (i.e. activator-independent) transcription. The present inventors had previously established an in vitro transcription assay (using highly purified human factors (FIG. 1A). A key feature of this assay was that both activated and basal transcription could be reconstituted on naked DNA templates (i.e. DNA templates not assembled into chromatin). To adapt this assay for purposes of measuring basal vs. p53-activated transcription, we generated templates with Gal4 DNA binding sites upstream of the adenovirus major late promoter sequence (FIG. 5A, B). Upon titration of a Gal4 DNA Binding Domain (DBD)-p53 Activation Domain (AD; residues 1-70) fusion protein into this system, we observed pol II-dependent transcription that was dependent on p53AD and Mediator (FIG. 5C). Reactions containing Gal4-p53AD generally produced about two- to four-fold more transcripts compared to reactions with no activator (FIG. 5C). Because experiments without Gal4-p53AD produced a low level of “basal” transcription that could be quantitated, this system allowed assessment of both p53-activated and basal transcription. […]

SJSA cells = assay: SJSA cell death after Nutlin treatment (CellTiter-Glo); type: cell-based; conditions: 24-hour Nutlin 10 μM
Protocol: Experimental time frame for RNA-Seq experiments: In a series of experiments in SJSA cells, we initially tested whether the bivalent peptide could cause a phenotypic change. […] We next determined that a 6-hour Nutlin treatment time was the shortest that would still trigger significant SJSA cell death within 24-48 hours. However, we obtained similar results with 6-hour (or 12-hour) Nutlin treatment times (±bivalent peptide). We then tested the prospect of RNA-Seq experiments, in hopes that gene expression changes and shorter time frames would allow an assessment of bivalent peptide effects. Here, we used HCT116 cells, which show strong transcriptional response to Nutlin (Allen et al., 2014). For RNA-Seq experiments, we needed a time frame long enough to allow accumulation of p53 target gene mRNAs but short enough to enable maximum activity of the bivalent peptide (e.g. prior to its secretion, export, and/or degradation). Using RT-qPCR assays, we confirmed that a 3-hour Nutlin treatment was a minimum amount of time to reliably detect induction of p53 target genes. […] RNA-Seq data have been uploaded on GEO: GSE135870.

## CC[C@H](C)[C@H](NC(=O)[C@H](CC(=O)O)NC(=O)[C@H](CC(=O)O)NC(=O)[C@@H]1CCCN1C(=O)[C@H](CO)NC(=O)[C@H](CC(C)C)NC(=O)CCOCCOCCOCCOCCOCCOCCNC(=O)[C@H](CCCNC(=N)N)NC(=O)[C@H](CCCNC(=N)N)NC(=O)[C@]1(C)CCCC=CCCCCCC[C@@](C)(NC(=O)[C@H](Cc2ccccc2)NC(=O)[C@H](CCCNC(=N)N)NC(=O)[C@H](CCC(=O)O)NC(=O)[C@H](CCC(N)=O)NC(=O)[C@H](CO)NC(=O)[C@H](CCCNC(=N)N)NC(C)=O)C(=O)N[C@@H](CC(=O)O)C(=O)N[C@@H](CC(C)C)C(=O)N[C@@H](Cc2c[nH]c3ccccc23)C(=O)N[C@@H](CCCCN)C(=O)N[C@@H](CCCNC(=N)N)C(=O)N[C@@H](CC(C)C)C(=O)N1)C(=O)N[C@@H](CCC(=O)O)C(=O)N[C@@H](CCC(N)=O)C(=O)N[C@@H](Cc1c[nH]c2ccccc12)C(=O)N[C@@H](Cc1ccccc1)C(=O)N[C@H](C(=O)N[C@@H](CCC(=O)O)C(=O)N[C@@H](CC(=O)O)C(N)=O)[C@@H](C)O [bivalent peptide] (Ac-RSQERF[R8]DLWKRL[S5]RR[PEG6]LSPDDIEQWFTED-NH2; staple 7-14; N-terminus assumed)
[1]
  inhibition of p53-activated transcription at 500 nM: inhibited
SJSA cells
  effect on cell death after Nutlin treatment: no significant effect
